Measurements: patent US10695337B2, “Piperidin-4-yl azetidine derivatives as JAK1 inhibitors” (Incyte Corporation, priority 2010, dated 2020)

Target: human JAK1 (a.a. 837-1142)
Experiment: In vitro JAK kinase assay (HTRF, phosphorylation of a biotinylated peptide), JAK1
Assay type: biochemical
Conditions: measured at 1 mM ATP; JAK2 IC50 / JAK1 IC50
Summary of the method: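 N-terminal His-tagged catalytic domains, baculovirus-expressed in insect cells, phosphorylated a biotinylated peptide for 1 hr at room temperature. EDTA stop was followed by SA-APC and Eu-Py20 antibody for 40 minutes, with phosphopeptide read by HTRF.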

IC50 Ratio JAK2/JAK1 | Structure (SMILES)
8.8 | N#CCC1(n2cc(-c3c(C#N)cnc4[nH]ccc34)cn2)CN(C2CCN(C(=O)c3cc(F)cc(C#N)c3)CC2)C1 [Example 333, 4-{1-[1-[1-(3-cyano-5-fluorobenzoyl)piperidin-4-yl]-3-(cyanomethyl)azetidin-3-yl]-1H-pyrazol-4-yl}-1H-pyrrolo[2,3-b]pyridine-5-carbonitrile]
2.4 | N#CCC1(n2cc(-c3c(C#N)cnc4[nH]ccc34)cn2)CN(C2CCN(C(=O)c3cc(Br)ccc3Br)CC2)C1 [Example 335]
2.9 | N#CCC1(n2cc(-c3c(C#N)cnc4[nH]ccc34)cn2)CN(C2CCN(C(=O)c3cc(Br)cc(Br)c3)CC2)C1 [Example 336]
3.2 | N#CCC1(n2cc(-c3c(C#N)cnc4[nH]ccc34)cn2)CN(C2CCN(C(=O)c3cc(C(F)(F)F)ncc3Cl)CC2)C1 [Example 341, 4-{1-[1-{1-[5-chloro-2-(trifluoromethyl)isonicotinoyl]piperidin-4-yl}-3-(cyanomethyl)azetidin-3-yl]-1H-pyrazol-4-yl}-1H-pyrrolo[2,3-b]pyridine-5-carbonitrile]
5.5 | N#CCC1(n2cc(-c3ncnc4[nH]ccc34)cn2)CN(C2CCN(C(=O)c3cc(C(F)(F)F)ncc3F)CC2)C1 [Example 343, {1-{1-[5-Fluoro-2-(trifluoromethyl)isonicotinoyl]piperidin-4-yl}-3[4-(7H-pyrrolo[2,3-d]pyrimidin-4-yl)-1H-pyrazol-1-yl]azetidin-3-yl}acetonitrile]

The remaining lines, values behind:

Structure (SMILES) | IC50 Ratio JAK2/JAK1
N#CCC1(n2cc(-c3c(F)cnc4[nH]ccc34)cn2)CN(C2CCN(C(=O)Nc3cnccc3C(F)(F)F)CC2)C1 [Example 330, 4-{3-(cyanomethyl)-3-[4-(5-fluoro-1H-pyrrolo[2,3-b]pyridin-4-yl)-1H-pyrazol-1-yl]azetidin-1-yl}-N-[4-(trifluoromethyl)pyridin-3-yl]piperidine-1-carboxamide] | 6.7
N#CCC1(n2cc(-c3c(C#N)cnc4[nH]ccc34)cn2)CN(C2CCN(C(=O)c3ccc(C#N)c(F)c3)CC2)C1 [Example 334, 4-{1-[1-[1-(4-cyano-3-fluorobenzoyl)piperidin-4-yl]-3-(cyanomethyl)azetidin-3-yl]-1H-pyrazol-4-yl}-1H-pyrrolo[2,3-b]pyridine-5-carbonitrile] | 4.3
N#CCC1(n2cc(-c3c(C#N)cnc4[nH]ccc34)cn2)CN(C2CCN(C(=O)c3cc(C#N)ccc3C#N)CC2)C1 [Example 337, 2-[(4-{3-(cyanomethyl)-3-[4-(5-cyano-1H-pyrrolo[2,3-b]pyridin-4-yl)-1H-pyrazol-1-yl]azetidin-1-yl}piperidin-1-yl)carbonyl]terephthalonitrile] | 6.0
N#CCC1(n2cc(-c3c(C#N)cnc4[nH]ccc34)cn2)CN(C2CCN(C(=O)c3cc(C#N)cc(C#N)c3)CC2)C1 [Example 338, 5-[(4-{3-(cyanomethyl)-3-[4-(5-cyano-1H-pyrrolo[2,3-b]pyridin-4-yl)-1H-pyrazol-1-yl]azetidin-1-yl}piperidin-1-yl)carbonyl]isophthalonitrile] | 7.4
N#CCC1(n2cc(-c3c(C#N)cnc4[nH]ccc34)cn2)CN(C2CCN(C(=O)c3c(F)cc(C#N)cc3F)CC2)C1 [Example 340, 4-{1-[1-[1-(4-cyano-2,6-difluorobenzoyl)piperidin-4-yl]-3-(cyanomethyl)azetidin-3-yl]-1H-pyrazol-4-yl}-1H-pyrrolo[2,3-b]pyridine-5-carbonitrile] | 1.4
N#CCC1(n2cc(-c3ncnc4[nH]ccc34)cn2)CN(C2CCN(C(=O)c3cc(C(F)(F)F)ncc3Cl)CC2)C1 [Example 342, {1-{1-[5-Chloro-2-(trifluoromethyl)isonicotinoyl]piperidin-4-yl}-3-[4-(7H-pyrrolo[2,3-d]pyrimidin-4-yl)-1H-pyrazol-1-yl]azetidin-3-yl}acetonitrile] | 5.7
